Consider 27 molecules from patent US10758534B2 (Vertex Pharmaceuticals Incorporated, priority 2014, dated 2020).

This assay addresses T1, F508del (Homo sapiens, UniProt P13569, DEL508-508).
T1 construct: expressed in transfected cells
Nature of the assay: Protocol 1: membrane potential optical assay (FLIPR III, voltage sensing dye), identification of potentiator compounds. It is filed as cell-based. The following applies: Table 3, compounds of Table 1. In outline:
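NIH 3T3 fibroblasts stably expressing F508del were cultured at 27° C for 24 hrs for temperature correction, then treated with compounds or DMSO and loaded with a voltage-sensing redistribution dye. Forskolin added with a Cl⁻ gradient activated the channel; membrane-potential fluorescence on FLIPR III reported increased gating.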

T1 sequence (P13569 with tags, fused parts or gaps DEL508-508): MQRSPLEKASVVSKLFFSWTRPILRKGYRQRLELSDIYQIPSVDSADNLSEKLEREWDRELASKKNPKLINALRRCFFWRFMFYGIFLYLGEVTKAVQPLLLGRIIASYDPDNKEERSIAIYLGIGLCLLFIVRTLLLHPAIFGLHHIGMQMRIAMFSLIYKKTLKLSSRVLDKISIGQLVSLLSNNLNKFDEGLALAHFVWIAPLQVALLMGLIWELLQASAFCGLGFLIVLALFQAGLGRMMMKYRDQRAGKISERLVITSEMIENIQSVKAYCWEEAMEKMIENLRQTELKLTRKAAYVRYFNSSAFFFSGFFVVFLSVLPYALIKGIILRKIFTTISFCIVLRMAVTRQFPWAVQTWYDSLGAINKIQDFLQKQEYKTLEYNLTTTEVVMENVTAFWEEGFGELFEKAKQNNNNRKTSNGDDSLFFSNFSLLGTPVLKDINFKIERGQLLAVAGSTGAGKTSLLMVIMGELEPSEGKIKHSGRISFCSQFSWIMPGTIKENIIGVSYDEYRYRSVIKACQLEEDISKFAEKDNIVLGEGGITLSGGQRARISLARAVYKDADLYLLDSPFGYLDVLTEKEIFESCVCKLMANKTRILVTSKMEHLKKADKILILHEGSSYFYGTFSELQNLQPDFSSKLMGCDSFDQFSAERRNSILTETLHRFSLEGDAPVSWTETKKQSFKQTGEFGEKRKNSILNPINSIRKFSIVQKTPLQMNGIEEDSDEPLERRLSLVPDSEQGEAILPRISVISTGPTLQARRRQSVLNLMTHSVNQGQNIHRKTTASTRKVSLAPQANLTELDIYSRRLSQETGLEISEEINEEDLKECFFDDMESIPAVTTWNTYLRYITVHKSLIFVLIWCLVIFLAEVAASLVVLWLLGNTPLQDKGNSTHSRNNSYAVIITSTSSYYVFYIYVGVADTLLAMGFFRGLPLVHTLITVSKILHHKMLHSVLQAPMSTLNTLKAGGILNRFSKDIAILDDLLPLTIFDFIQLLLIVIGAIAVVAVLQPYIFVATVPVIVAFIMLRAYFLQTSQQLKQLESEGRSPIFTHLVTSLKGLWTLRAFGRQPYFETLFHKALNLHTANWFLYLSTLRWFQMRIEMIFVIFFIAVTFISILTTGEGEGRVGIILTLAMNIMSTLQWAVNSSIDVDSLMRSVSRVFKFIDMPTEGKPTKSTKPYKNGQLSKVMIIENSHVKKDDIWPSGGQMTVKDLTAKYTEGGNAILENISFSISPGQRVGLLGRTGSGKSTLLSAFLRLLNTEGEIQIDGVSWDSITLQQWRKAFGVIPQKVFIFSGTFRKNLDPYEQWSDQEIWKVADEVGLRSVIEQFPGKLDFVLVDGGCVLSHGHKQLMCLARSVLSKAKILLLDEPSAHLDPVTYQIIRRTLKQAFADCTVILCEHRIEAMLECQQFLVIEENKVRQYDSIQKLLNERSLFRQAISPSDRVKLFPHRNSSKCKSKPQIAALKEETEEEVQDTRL

With `Cc1cc(-c2ccc(C(=O)NS(=O)(=O)c3cccc(N)n3)c(N3C[C@@H](C)CC3(C)C)n2)ccc1F` [Compound 1930, N-[(6-amino-2-pyridyl)sulfonyl]-6-(4-fluoro-3-methyl-phenyl)-2-[(4S)-2,2,4-trimethylpyrrolidin-1-yl]pyridine-3-carboxamide], the EC30 entry was “+++ (“+++” means <3 uM)”.

`COc1cccnc1S(=O)(=O)NC(=O)C1(C)c2ccccc2CN1Cc1c(C)cc(C)cc1C` (stereo not drawn) [Compound 825, N-[(3-methoxy-2-pyridyl)sulfonyl]-1-methyl-2-[(2,4,6-trimethylphenyl)methyl]isoindoline-1-carboxamide]: the EC30 entry was “++ (“++” means between 3 uM and 10 uM)”.

`CCOC1CCCN(c2nc(-c3cc(F)cc(OCC(C)C)c3)ccc2C(=O)NS(=O)(=O)c2ccn[nH]2)C1` (stereo not drawn) [Compound 843, 2-(3-ethoxy-1-piperidyl)-6-(3-fluoro-5-isobutoxy-phenyl)-N-(1H-pyrazol-5-ylsulfonyl)pyridine-3-carboxamide]: the EC30 result was “++ (“++” means between 3 uM and 10 uM)”. With `CCOc1cccc2c1CN(Cc1c(C)cc(C)cc1C)C2(C)C(=O)NS(=O)(=O)c1cncs1` (stereo not drawn) [Compound 1606, 4-ethoxy-1-methyl-N-thiazol-5-ylsulfonyl-2-[(2,4,6-trimethylphenyl)methyl]isoindoline-1-carboxamide] the entry was “+++ (“+++” means <3 uM)”; with `CC1CN(c2ncc(C3=CC4CCC3C4)cc2C(=O)NS(=O)(=O)c2cccc(N)n2)C(C)(C)C1` (stereo not drawn) [Compound 1888, N-[(6-amino-2-pyridyl)sulfonyl]-5-(3-bicyclo[2.2.1]hept-2-enyl)-2-(2,2,4-trimethylpyrrolidin-1-yl)pyridine-3-carboxamide], “++ (“++” means between 3 uM and 10 uM)”.

Turning to `CCCOc1cccc(-c2ccc(C(=O)NS(=O)(=O)c3ccc[nH]c3=O)c(Oc3c(C)cc(C)cc3C)n2)c1Cl` [Compound 955, 6-(2-chloro-3-propoxy-phenyl)-N-[(2-oxo-1H-pyridin-3-yl)sulfonyl]-2-(2,4,6-trimethylphenoxy)pyridine-3-carboxamide], the EC30 entry was “++ (“++” means between 3 uM and 10 uM)”. With `Cc1cc(C)c(Oc2nc(C3=CC(C)(C)CCC3=O)ccc2C(=O)NS(=O)(=O)c2cccc(N)n2)c(C)c1` [Compound 1598, N-[(6-amino-2-pyridyl)sulfonyl]-6-(3,3-dimethyl-6-oxo-cyclohexen-1-yl)-2-(2,4,6-trimethylphenoxy)pyridine-3-carboxamide] the entry was “+++ (“+++” means <3 uM)”.

Take `CC(C)CN(C)c1cc(-c2ccc(C(=O)NS(=O)(=O)c3cccc(N)n3)c(N3CC(C)CC3(C)C)n2)ccn1` (stereo not drawn) [Compound 898, N-[(6-amino-2-pyridyl)sulfonyl]-6-[2-[isobutyl(methyl)amino]-4-pyridyl]-2-(2,2,4-trimethylpyrrolidin-1-yl)pyridine-3-carboxamide]: the EC30 entry is recorded as “+++ (“+++” means <3 uM)”. In the case of `C[C@@H]1CN(c2nc(-c3cccc(OCC(C)(C)C)n3)ccc2C(=O)NS(=O)(=O)c2cccc(N)n2)C(C)(C)C1` [Compound 1663, N-[(6-amino-2-pyridyl)sulfonyl]-6-[6-(2,2-dimethylpropoxy)-2-pyridyl]-2-[(4S)-2,2,4-trimethylpyrrolidin-1-yl]pyridine-3-carboxamide] it was “+++ (“+++” means <3 uM)”; in that of `CC(C)COc1cc(F)cc(-c2ccc(C(=O)NS(=O)(=O)c3cccc(N)n3)c(N3CCCC3C(C)C)n2)c1` (stereo not drawn) [Compound 1258, N-[(6-amino-2-pyridyl)sulfonyl]-6-(3-fluoro-5-isobutoxy-phenyl)-2-(2-isopropylpyrrolidin-1-yl)pyridine-3-carboxamide], “+++ (“+++” means <3 uM)”; in that of `CC(C)COc1cc(F)cc(-c2ccc(C(=O)NS(=O)(=O)c3cccc(N)n3)c(OC3CCCCCC3)n2)c1` [Compound 1263, N-[(6-amino-2-pyridyl)sulfonyl]-2-(cycloheptoxy)-6-(3-fluoro-5-isobutoxy-phenyl)pyridine-3-carboxamide], “+++ (“+++” means <3 uM)”. With `CCOc1ccc(-c2ccc(C(=O)NS(=O)(=O)c3ccc[nH]c3=O)c(Oc3c(C)cc(C)cc3C)n2)cc1F` [Compound 901, 6-(4-ethoxy-3-fluoro-phenyl)-N-[(2-oxo-1H-pyridin-3-yl)sulfonyl]-2-(2,4,6-trimethylphenoxy)pyridine-3-carboxamide] the entry was “++ (“++” means between 3 uM and 10 uM)”; with `C[C@@H]1CN(c2nc(C3=COCCC3)ccc2C(=O)NS(=O)(=O)c2cccc(N)n2)C(C)(C)C1` [Compound 1524, N-[(6-amino-2-pyridyl)sulfonyl]-6-(3,4-dihydro-2H-pyran-5-yl)-2-[(4S)-2,2,4-trimethylpyrrolidin-1-yl]pyridine-3-carboxamide], “+++ (“+++” means <3 uM)”. With `Cc1cc(C)c(CN2CCc3ccccc3CC2C(=O)NS(=O)(=O)c2cccc(N)n2)c(C)c1` (stereo not drawn) [Compound 1055, N-[(6-amino-2-pyridyl)sulfonyl]-3-[(2,4,6-trimethylphenyl)methyl]-1,2,4,5-tetrahydro-3-benzazepine-4-carboxamide] the entry was “++ (“++” means between 3 uM and 10 uM)”. As to `Cc1cc(C)c(Oc2nc(-c3ccc(C(C)(C)O)cc3)ccc2C(=O)NS(=O)(=O)c2cccc(N)n2)c(C)c1` [Compound 1147, N-[(6-amino-2-pyridyl)sulfonyl]-6-[4-(1-hydroxy-1-methyl-ethyl)phenyl]-2-(2,4,6-trimethylphenoxy)pyridine-3-carboxamide], the EC30 entry was “++ (“++” means between 3 uM and 10 uM)”. In the case of `CC(C)Oc1cc(F)cc(-c2ccc(C(=O)NS(=O)(=O)c3ccn[nH]3)c(N3[C@H](C)CC[C@@H]3C)n2)c1` [Compound 1285, 2-[(2S,5R)-2,5-dimethylpyrrolidin-1-yl]-6-(3-fluoro-5-isopropoxy-phenyl)-N-(1H-pyrazol-5-ylsulfonyl)pyridine-3-carboxamide] it was “+++ (“+++” means <3 uM)”; in that of `Cc1cc(C)c(C(C)N2Cc3ccccc3C2C(=O)NS(=O)(=O)c2cccc(N)n2)c(C)c1` (stereo not drawn) [Compound 1186, N-[(6-amino-2-pyridyl)sulfonyl]-2-[1-(2,4,6-trimethylphenyl)ethyl]isoindoline-1-carboxamide], “+++ (“+++” means <3 uM)”. With `CC1CN(c2nc(C(C)(C)C)c(C3=CC(=O)CC(C)(C)C3)cc2C(=O)NS(=O)(=O)c2cccc(N)n2)C(C)(C)C1` (stereo not drawn) [Compound 1405, N-[(6-amino-2-pyridyl)sulfonyl]-6-tert-butyl-5-(5,5-dimethyl-3-oxo-cyclohexen-1-yl)-2-(2,2,4-trimethylpyrrolidin-1-yl)pyridine-3-carboxamide] the entry was “+++ (“+++” means <3 uM)”; with `CC1CN(c2ncccc2C(=O)NS(=O)(=O)c2cccc(Nc3ccc(N(C)C)cc3)n2)C(C)(C)C1` (stereo not drawn) [Compound 1757, N—[[6-[4-(dimethylamino)anilino]-2-pyridyl]sulfonyl]-2-(2,2,4-trimethylpyrrolidin-1-yl)pyridine-3-carboxamide], “+++ (“+++” means <3 uM)”; with `C[C@@H]1CN(c2nc(-c3ccc(OC(F)(F)F)cc3)ccc2C(=O)NS(=O)(=O)c2cccc(N)n2)C(C)(C)C1` [Compound 1785, N-[(6-amino-2-pyridyl)sulfonyl]-6-[4-(trifluoromethoxy)phenyl]-2-[(4S)-2,2,4-trimethylpyrrolidin-1-yl]pyridine-3-carboxamide], “+++ (“+++” means <3 uM)”. In the case of `CC(C)COc1ccc(-c2ccc(C(=O)NS(=O)(=O)c3cccc(N)n3)c(N3CCC(C)CC3)n2)cc1` [Compound 1094, N-[(6-amino-2-pyridyl)sulfonyl]-6-(4-isobutoxyphenyl)-2-(4-methyl-1-piperidyl)pyridine-3-carboxamide] it was “+++ (“+++” means <3 uM)”. For the molecule `C#CC1CCCN(c2nc(-c3ccc(OC(C)C)nc3)ccc2C(=O)NS(=O)(=O)c2cccc(N)n2)C1` (stereo not drawn) [Compound 954, N-[(6-amino-2-pyridyl)sulfonyl]-2-(3-ethynyl-1-piperidyl)-6-(6-isopropoxy-3-pyridyl)pyridine-3-carboxamide], the EC30 entry is reported as “+++ (“+++” means <3 uM)”. Take `CC(C)Oc1cc(F)cc(-c2ccc(C(=O)NS(=O)(=O)c3cccc(N)n3)c(N3[C@H](C)CC[C@@H]3C)n2)c1` [Compound 1123, N-[(6-amino-2-pyridyl)sulfonyl]-2-[(2S,5R)-2,5-dimethylpyrrolidin-1-yl]-6-(3-fluoro-5-isopropoxy-phenyl)pyridine-3-carboxamide]: the EC30 result is on record as “+++ (“+++” means <3 uM)”.

Turning to `COc1ccc(-c2ccc(C(=O)NS(=O)(=O)c3cccc(N)n3)c(Oc3c(C)cc(C)cc3C)n2)cc1F` [Compound 1140, N-[(6-amino-2-pyridyl)sulfonyl]-6-(3-fluoro-4-methoxy-phenyl)-2-(2,4,6-trimethylphenoxy)pyridine-3-carboxamide], the EC30 entry is reported as “+++ (“+++” means <3 uM)”. With `CC(C)Oc1ccc(-c2ccc(C(=O)NS(=O)(=O)c3cccc(N)n3)c(N3CCC(F)CC3)n2)cn1` [Compound 913, N-[(6-amino-2-pyridyl)sulfonyl]-2-(4-fluoro-1-piperidyl)-6-(6-isopropoxy-3-pyridyl)pyridine-3-carboxamide] the entry was “++ (“++” means between 3 uM and 10 uM)”; with `Cc1cc(C)c(Oc2nc3c(cc2C(=O)NS(=O)(=O)c2nccnc2N)CCCC3(C)C)c(C)c1` [Compound 1223, N-(3-aminopyrazin-2-yl)sulfonyl-8,8-dimethyl-2-(2,4,6-trimethylphenoxy)-6,7-dihydro-5H-quinoline-3-carboxamide], “+++ (“+++” means <3 uM)”. In the case of `CC1CN(c2nc(-c3ccc(OC(C)C)nc3)ccc2C(=O)NS(=O)(=O)c2ccn[nH]2)C(C)(C)C1` (stereo not drawn) [Compound 1352, 6-(6-isopropoxy-3-pyridyl)-N-(1H-pyrazol-5-ylsulfonyl)-2-(2,2,4-trimethylpyrrolidin-1-yl)pyridine-3-carboxamide] it was “+++ (“+++” means <3 uM)”.
